# Active and inactive are the calls of the source. The calls are words filed in the database; no cut-off is given here.
# Tests used:
# [1] = system: HCT-116; assay: Inhibition of PI3K/AKT signalling pathway in human HCT-116 cells assessed as downregulation of AKT phosphorylation at […] residue at 100 nM irradiated with 365 nm UV light for 5 mins and incubated for 24 hrs by Western blot; assay type: cell-based
# [2] = system: HCT-116; assay: Inhibition of PI3K/AKT signalling pathway in human HCT-116 cells assessed as downregulation of […] phosphorylation at 100 nM irradiated with 365 nm UV light for 5 mins and incubated for 24 hrs by Western blot; assay type: cell-based
# [3] = system: HGC-27; assay: Inhibition of PI3K/AKT signalling pathway in human HGC-27 cells assessed as downregulation of AKT phosphorylation at Ser473 residue at 100 nM irradiated with 365 nm UV light for 5 mins and incubated for 24 hrs by Western blot; assay type: cell-based
# [4] = system: HGC-27; assay: Inhibition of PI3K/AKT signalling pathway in human HGC-27 cells assessed as downregulation of AKT phosphorylation at […] residue at 100 nM irradiated with 365 nm UV light for 5 mins and incubated for 24 hrs by Western blot; assay type: cell-based
# [5] = system: HGC-27; assay: Inhibition of PI3K/AKT signalling pathway in human HGC-27 cells assessed as downregulation of SRP6 phosphorylation at 100 nM irradiated with 365 nm UV light for 5 mins and incubated for 24 hrs by Western blot; assay type: cell-based
# [6] = system: HCT-116; assay: Inhibition of PI3K/AKT signalling pathway in human HCT-116 cells assessed as downregulation of AKT phosphorylation at Ser473 residue at 100 nM incubated for 24 hrs under dark condition by Western blot; assay type: cell-based
# [7] = system: HCT-116; assay: Inhibition of PI3K/AKT signalling pathway in human HCT-116 cells assessed as downregulation of AKT phosphorylation at […] residue at 100 nM incubated for 24 hrs under dark condition by Western blot; assay type: cell-based
# [8] = system: HCT-116; assay: Inhibition of PI3K/AKT signalling pathway in human HCT-116 cells assessed as downregulation of […] phosphorylation at 100 nM incubated for 24 hrs under dark condition by Western blot; assay type: cell-based
# [9] = system: HGC-27; assay: Inhibition of PI3K/AKT signalling pathway in human HGC-27 cells assessed as downregulation of AKT phosphorylation at Ser473 residue at 100 nM incubated for 24 hrs under dark condition by Western blot; assay type: cell-based
# [10] = system: HGC-27; assay: Inhibition of PI3K/AKT signalling pathway in human HGC-27 cells assessed as downregulation of AKT phosphorylation at […] residue at 100 nM incubated for 24 hrs under dark condition by Western blot; assay type: cell-based
# [11] = system: HGC-27; assay: Inhibition of PI3K/AKT signalling pathway in human HGC-27 cells assessed as downregulation of SRP6 phosphorylation at 100 nM incubated for 24 hrs under dark condition by Western blot; assay type: cell-based
# [12] = system: HGC-27; assay: Induction of cell cycle arrest in human HGC-27 cells assessed as accumulation at G0/G1 phase at 100 nM irradiated with 365 nm UV light for 5 mins and incubated for 24 hrs by flow cytometry; assay type: functional, cell-based
# [13] = system: HGC-27; assay: Induction of cell cycle arrest in human HGC-27 cells assessed as accumulation at G0/G1 phase at 100 nM incubated for 24 hrs by flow cytometry; assay type: functional, cell-based
# [14] = system: HCT-116; assay: Induction of cell cycle arrest in human HCT-116 cells assessed as accumulation at G0/G1 phase at 100 nM irradiated with 365 nm UV light for 5 mins incubated for 24 hrs by flow cytometry; assay type: functional, cell-based
# [15] = system: HCT-116; assay: Induction of apoptosis in human HCT-116 cells assessed as increase in number of cells in sub-G0 phase at 100 nM incubated for 24 hrs by flow cytometry; assay type: functional, cell-based
# [16] = system: HCT-116; assay: Inhibition of colony formation in human HCT-116 cells at 100 nM incubated for 24 hrs by crystal violet staining based assay; assay type: functional, cell-based
# [17] = system: HGC-27; assay: Inhibition of colony formation in human HGC-27 cells at 100 nM incubated for 24 hrs by crystal violet staining based assay; assay type: functional, cell-based
# [18] = system: HCT-116; assay: Inhibition of colony formation in human HCT-116 cells irradiated with 365 nm of UV light for 5 min at 100 nM incubated for 24 hrs by crystal violet staining based assay; assay type: functional, cell-based
# [19] = system: HGC-27; assay: Inhibition of colony formation in human HGC-27 cells irradiated with 365 nm of UV light for 5 min at 100 nM incubated for 24 hrs by crystal violet staining based assay; assay type: functional, cell-based
# [20] = species: Homo sapiens; assay: Anticancer activity against KOCO-096 patient derived colon cancer organoid assessed as inhibition of cell growth irradiated with 365 nm of UV light for 2 mins and incubated for 120 hrs; assay type: functional, tissue-based
# [21] = species: Homo sapiens; assay: Anticancer activity against KOES-007 patient derived stomach cancer organoid assessed as inhibition of cell growth irradiated with 365 nm of UV light for 2 mins and incubated for 120 hrs; assay type: functional, tissue-based
# [22] = species: Homo sapiens; assay: Anticancer activity against KOCO-096 patient derived colon cancer organoid assessed as inhibition of cell growth irradiated with 365 nm of UV light for 5 mins and incubated for 120 hrs; assay type: functional, tissue-based
# [23] = species: Homo sapiens; assay: Anticancer activity against KOES-007 patient derived stomach cancer organoid assessed as inhibition of cell growth irradiated with 365 nm of UV light for 5 mins and incubated for 120 hrs; assay type: functional, tissue-based
# [24] = system: HCT-116; assay: Anticancer activity against fluorescent labeled human HCT-116 cells xenografted in yolk of zebra embryo assessed as reduction in tumor size by measuring fluorescence density at 31.3 nM irradiated with 365 nm of UV light incubated for 48 hrs by fluorescence microscopic analysis; assay type: functional, cell-based
# [25] = Plasma protein binding in dog at 1 uM by LC-MS/MS analysis; assay type: ADME, cell-free, Canis lupus familiaris; conditions: read-out: PPB (converted)
# [26] = Stability in dog plasma assessed as half life at 1 uM measured upto 120 min by LC-MS/MS analysis; assay type: ADME, cell-free, Canis lupus familiaris
# [27] = Stability in dog liver microsomes assessed as half life at 1 uM in presence of NADPH measured upto 120 min by LC-MS/MS analysis; assay type: ADME, Canis lupus familiaris, Microsome
compound,measurement,setting,value
COc1cc(CN(c2cc(-c3cc(OC4CCOCC4)c4ncnc(C)c4c3)cnc2OC)S(=O)(=O)c2ccc(F)cc2F)c([N+](=O)[O-])cc1OC,inhibition,[1],Active
same,inhibition,[2],Active
same,inhibition,[3],Active
same,inhibition,[4],Active
same,inhibition,[5],Active
same,inhibition,[6],inactive
same,inhibition,[7],inactive
same,inhibition,[8],inactive
same,inhibition,[9],inactive
same,inhibition,[10],inactive
same,inhibition,[11],inactive
same,Activity,[12],Active
same,Activity,[13],inactive
same,Activity,[14],inactive
same,inhibition,[15],Active
same,inhibition,[16],inactive
same,inhibition,[17],inactive
same,inhibition,[18],Active
same,inhibition,[19],Active
same,Activity,[20],Active
same,Activity,[21],Active
same,Activity,[22],Dose-Dependent Effect
same,Activity,[23],Dose-Dependent Effect
same,Activity,[24],Active
same,fraction unbound at 1 µM,[25],0.005
same,half-life at 1 µM,[26],> 120 min
same,half-life at 1 µM,[27],4.62 min
